Experimental data as given in patent EP1393728A1, “Inverse agonists acting at virus-encoded G protein-coupled receptors” (priority 2002, dated 2004).

Assays:
US28 [1] = biological target: T1, US28 (Human cytomegalovirus, UniProt P69332); assay: biochemical; assay type: binding, HCMV (strain AD169); details: AD169-infected HFFs
Protocol: (§1) Cell culture, transfection and infection with HCMV. COS-7 cells were grown as previously described in the cited Casarosa reference. Transfection of the COS-7 cells was performed by DEAE-dextran, using 2 µg of DNA of each US28 construct per million cells. Human foreskin fibroblasts (HFFs) were cultured and infected with […] (strain AD169) or a deletion mutant Δ28-HCMV.
(§2) Binding experimants. Labeling of RANTES (Peprotech, Rocky Hill, USA) with [^125I] and binding in COS-7 cells were performed as previously described (Gruijthuijsen et al., J. Virol. 76 (2002) 1328-1338).

RCMV-encoded R33 = biological target: T2, RCMV-encoded R33 (Rat cytomegalovirus, UniProt O12000); assay: R33-mediated InsP accumulation (PLC activation) in COS-7 cells; assay type: cell-based; details: concentration as high as 10 µM
T2 construct: expressed in transfected cells; host or cells: COS-7
T2 sequence (O12000 whole entry): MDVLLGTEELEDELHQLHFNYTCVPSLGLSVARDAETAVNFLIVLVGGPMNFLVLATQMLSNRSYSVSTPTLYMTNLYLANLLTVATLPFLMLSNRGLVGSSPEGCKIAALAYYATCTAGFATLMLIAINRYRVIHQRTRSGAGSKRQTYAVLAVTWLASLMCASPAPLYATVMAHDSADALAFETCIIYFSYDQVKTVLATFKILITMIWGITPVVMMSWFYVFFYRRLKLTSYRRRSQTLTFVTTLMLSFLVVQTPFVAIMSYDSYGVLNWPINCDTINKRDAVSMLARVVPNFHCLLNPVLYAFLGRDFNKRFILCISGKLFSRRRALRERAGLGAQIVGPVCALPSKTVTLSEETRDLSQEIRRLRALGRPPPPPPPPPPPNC
Protocol: (§3) [^3H]-inositol phosphate production. Experiments in COS-7 cells and HFFs were performed as described in the references mentioned in the previous paragraph.
(§4) Moreover, other GPCRs were used as controls to ascertain specificity of action of this compound. As previously reported, expression ofRCMV-encoded R33 (Gruijthuijsen et al. J. Virol. 76 (2002), 1328-1338) or KSHV-encoded ORF74 (Rosenkilde et al. 274 (1999), 956-961) also leads to constitutive activation of phospholipase C.

[2] = test system: US28-mediated HIV-1 entry; assay: HIV-1 infection assay (luciferase reporter virus) in HEK293-T cells with CD4 and US28; assay type: cell-based; details: Human immunodeficiency virus 1, HEK-293T
Protocol: HIV-1 infection assay. HEK293-T cells were transiently transfected with pcDNA1-US28 and pcDNA1-CD4 using the calcium phosphate method and cultured overnight in 48 well plates. The following day, cells were incubated with different concentrations of the compound of Formula X (dissolved in DMSO) or medium (containing an equal amount of DMSO) for 2 hours before infection with an R5-tropic HIV- 1 virus containing the luciferase reporter gene under the LTR promoter. After overnight incubation, cells were washed twice and cultivated in fresh medium. 3 days after infection, the luciferase activity was quantitated using the Luciferase Assay System (Promega, Madison, USA).
(§5) In order to test the ability of the compound of Formula X to block viral entry via US28, a reporter gene assay was used. In this assay, HEK-293T cells expressing US28 and CD4 are infected by a luciferase-containing HIV-1 reporter virus. Consequently, the level of cellular luciferase activity is proportional to HIV-1 entry. […] Luciferase activity is increased approximately 20 fold in the presence of US28 when compared to cells expressing CD4 alone (fig. 6A). […] At 10^-6M, the compound of Formula X reduces HIV-1 entry to 41 ± 8 % of control cells. Determination of a complete dose-response curve was not possible due to toxic effects of DM50 and the compound at higher concentrations, as determined by MTT test.

US28 [3] = biological target: T1, US28; assay: cell-based; set-up: species or system HCMV (strain AD169)
Protocol: as §1, §3

US28 [4] = assay: cell-based; set-up: species or system HCMV (strain AD169); details: US28-deletion-mutant-HCMV- or mock-infected HFFs
Protocol: as §1, §3

US28 [5] = biological target: T1, US28; assay: biochemical; assay type: binding, HCMV
US28 [6] = biological target: T1, US28; assay: cell-based; set-up: species or system HCMV; details: for % 10^-5 remaining activity on US28 in inositol phosphate assay: at 10^-5; for inverse agonistic effect at US28 relative to the compound of Formula X (statement in words): structure-activity discussion of Table 1; for loss in inverse agonistic potency: relative to the compound of Formula X
Protocol: as §1, §3
Data analysis. Curve fitting of data was carried out using the program Prism and IC50 values obtained by nonlinear regression analysis (GraphPad Software, Inc., San Diego, USA). Data are expressed as mean ± S.E.
In order to find inverse agonists for US28, a variety of compounds were screened for modulation of US28-mediated constitutive inositol phosphate (InsP) production. This approach led to identify the compound of Formula X as inverse agonist for US28.

KSHV-encoded ORF74 = biological target: T3, KSHV-encoded ORF74 (Human herpesvirus 8 type P, UniProt Q98146); assay: ORF74-mediated InsP accumulation (PLC activation) in COS-7 cells; assay type: cell-based; details: concentration as high as 10 µM
T3 construct: expressed in transfected cells; host or cells: COS-7
T3 sequence (Q98146 whole entry): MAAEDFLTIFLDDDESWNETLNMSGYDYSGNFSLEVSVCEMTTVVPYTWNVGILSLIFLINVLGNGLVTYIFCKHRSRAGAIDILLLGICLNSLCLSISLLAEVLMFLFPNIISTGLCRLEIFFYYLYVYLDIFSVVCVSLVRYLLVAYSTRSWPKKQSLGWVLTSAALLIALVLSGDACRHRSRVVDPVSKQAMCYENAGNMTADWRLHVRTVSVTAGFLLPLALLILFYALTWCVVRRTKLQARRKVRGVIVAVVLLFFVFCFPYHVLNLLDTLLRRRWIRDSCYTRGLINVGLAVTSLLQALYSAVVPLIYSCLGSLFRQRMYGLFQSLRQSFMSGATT
Protocol: as §3, §4

Δ(2-22)-US28 = Δ(2-22)-US28 (Human cytomegalovirus, UniProt P69332); assay: cell-based; set-up: species or system HCMV
Chain of Δ(2-22)-US28 (P69332 22-354, looked up, stated change not applied): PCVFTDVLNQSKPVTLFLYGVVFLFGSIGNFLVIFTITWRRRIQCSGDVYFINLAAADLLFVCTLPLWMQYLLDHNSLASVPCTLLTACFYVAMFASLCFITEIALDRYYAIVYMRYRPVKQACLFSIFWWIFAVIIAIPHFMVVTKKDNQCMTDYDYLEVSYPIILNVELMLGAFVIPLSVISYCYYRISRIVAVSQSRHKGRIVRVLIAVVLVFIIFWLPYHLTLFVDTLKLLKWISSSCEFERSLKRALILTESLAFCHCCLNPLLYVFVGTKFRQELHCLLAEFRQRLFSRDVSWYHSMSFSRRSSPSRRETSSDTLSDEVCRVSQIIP
Source text: (§6) DNA constructs. The cDNA encoding for US28 (see Casarosa et al. in J, Biol. Chem. 276 (2001) 1133-1137) was inserted into the mammalian vector pcDNAS. Δ(2-22)-US28 and the HA-tagged versions of both WT- and Δ(2-22)-US28 were generated by PCR. Single amino acid mutations, as for E^277A- and E^277Q.US28, were introduced using the Altered Sites® II in vitro Mutagenesis System (Promega, Madison, USA), according to manufacturer's protocol. All constructs were verified by dideoxy sequencing.
as §3

[7] = biological target: T4, human histamine H1 receptor (hH1) (Homo sapiens, UniProt P35367); assay: InsP production in COS-7 cells expressing the histamine H1 receptor; assay type: cell-based; details: 10 µM, COS-7 cells expressing the H1 receptor
T4 construct: expressed in transfected cells; host or cells: COS-7
T4 sequence (P35367 whole entry): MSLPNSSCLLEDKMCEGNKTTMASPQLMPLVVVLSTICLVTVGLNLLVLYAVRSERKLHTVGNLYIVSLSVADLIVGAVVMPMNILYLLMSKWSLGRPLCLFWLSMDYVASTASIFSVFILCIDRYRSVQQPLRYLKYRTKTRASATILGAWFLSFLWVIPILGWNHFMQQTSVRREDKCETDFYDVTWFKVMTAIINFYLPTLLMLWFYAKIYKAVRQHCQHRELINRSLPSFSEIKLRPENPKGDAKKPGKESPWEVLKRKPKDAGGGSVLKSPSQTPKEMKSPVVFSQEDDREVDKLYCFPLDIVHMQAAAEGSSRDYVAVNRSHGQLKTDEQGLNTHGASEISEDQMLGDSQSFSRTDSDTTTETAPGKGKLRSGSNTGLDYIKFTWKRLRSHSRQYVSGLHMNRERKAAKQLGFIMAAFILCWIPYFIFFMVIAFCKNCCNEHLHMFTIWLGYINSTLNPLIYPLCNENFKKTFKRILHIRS
Protocol: as §3
Furthermore, the compound of Formula X was tested on COS-7 cells expressing the human histamine H1 receptor (hH1). Like US28, this GPCR constitutively activates PLC enzymes via Gαq/11 proteins.

US28 [8] = biological target: T1, US28; assay type: binding, HCMV; details: in the presence of 10 µM compound of Formula X (725 ± 69 in its absence)
Protocol: as §2
Moreover, the present inventors investigated the effect of the compound of Formula X in a saturation binding assay of [^125I]-RANTES.

transfected cells = assay: AlamarBlue toxicity test; assay type: cell-based; details: AlamarBlue assay, 2 hours incubation, data not shown
Protocol: Toxicity test. The AlamarBlue^TM assay (Serotec, Oxford, UK) was performed following the manufacturer's protocol. Briefly, transfected cells were incubated with the compound of Formula X for 2 hours, followed by the addiction of the AlamarBlue dye.
After 1 hour, the fluorescence was monitored at 560 nm excitation wavelength and 590 nm emission wavelenght in a Victor^2 (PerkinElmer, Boston, USA).

HEK-293T cells = assay: MTT test; assay type: cell-based; details: higher concentrations (above 10^-6M), together with the solvent
Source text: as §5

E^277Q-US28 = E^277Q-US28 (Human cytomegalovirus, UniProt P69332, E277Q); assay type: binding, HCMV; details: E277Q-US28, [125I]-RANTES displacement
Chain of E^277Q-US28 (P69332 whole entry E277Q): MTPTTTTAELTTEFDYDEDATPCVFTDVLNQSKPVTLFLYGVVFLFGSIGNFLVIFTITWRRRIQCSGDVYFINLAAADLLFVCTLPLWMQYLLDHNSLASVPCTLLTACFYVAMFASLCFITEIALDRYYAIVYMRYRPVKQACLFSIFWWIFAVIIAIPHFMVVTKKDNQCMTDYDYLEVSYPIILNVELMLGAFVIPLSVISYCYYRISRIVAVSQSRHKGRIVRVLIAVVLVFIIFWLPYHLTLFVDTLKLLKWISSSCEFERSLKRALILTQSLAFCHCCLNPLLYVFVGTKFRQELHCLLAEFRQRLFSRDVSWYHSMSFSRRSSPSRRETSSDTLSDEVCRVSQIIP
Source text: as §6, §2
(§7) E^277 was therefore mutated into glutamine, to eliminate the charge but retain the hydrogen bonding potential of the side chain, and into alanine, to eliminate both the charge and the hydrogen bonding potential.

E^277A-US28 = E^277A-US28 (Human cytomegalovirus, UniProt P69332, E277A); assay type: binding, HCMV; details: E277A-US28, [125I]-RANTES displacement
Chain of E^277A-US28 (P69332 whole entry E277A): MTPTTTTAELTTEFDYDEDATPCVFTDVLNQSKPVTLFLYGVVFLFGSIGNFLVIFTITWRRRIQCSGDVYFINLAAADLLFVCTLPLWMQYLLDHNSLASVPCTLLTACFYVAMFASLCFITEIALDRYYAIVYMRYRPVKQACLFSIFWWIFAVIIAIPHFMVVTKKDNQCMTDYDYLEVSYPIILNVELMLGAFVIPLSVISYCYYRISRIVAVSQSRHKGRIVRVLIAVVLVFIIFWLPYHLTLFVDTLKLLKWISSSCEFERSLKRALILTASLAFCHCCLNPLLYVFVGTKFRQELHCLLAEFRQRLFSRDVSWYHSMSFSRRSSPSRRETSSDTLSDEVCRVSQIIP
Source text: as §6, §2, §7

[9] = IC50 InsP, inhibition of US28-mediated InsP production, COS-7 cells, N.A. = non active

T1 sequence (P69332 whole entry): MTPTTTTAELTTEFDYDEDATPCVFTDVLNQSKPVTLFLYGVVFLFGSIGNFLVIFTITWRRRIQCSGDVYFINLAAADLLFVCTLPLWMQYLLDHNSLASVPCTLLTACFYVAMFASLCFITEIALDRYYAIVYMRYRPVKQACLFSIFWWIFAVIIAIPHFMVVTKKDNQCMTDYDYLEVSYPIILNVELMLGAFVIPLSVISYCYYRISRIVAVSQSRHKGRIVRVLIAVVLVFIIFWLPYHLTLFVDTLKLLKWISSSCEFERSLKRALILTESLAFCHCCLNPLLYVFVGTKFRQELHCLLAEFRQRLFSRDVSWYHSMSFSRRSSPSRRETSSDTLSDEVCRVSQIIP

Structure (SMILES): N#CC(CCCN1CCC(O)(c2ccc(Cl)cc2)CC1)(c1ccccc1)c1ccccc1 [Formula X]
- IC50 (US28 [1]; IC50 of [125I]-RANTES displacement): 0.708 µM
- IC50 (US28 [1]; pIC50 of [125I]-RANTES displacement): 0.708 µM
- modulation of R33-mediated PLC activation (RCMV-encoded R33): does not modulate
- activity at 1 µM ([2]; read-out: HIV-1 entry, % of control cells): 41 ± 8%
- inhibition at 1 µM ([2]; read-out: inhibition of viral entry): 60%
- IC50 (US28 [3]): 0.776 µM
- effect on InsP signaling (US28 [4]): does not affect
- IC50 (US28 [5]): 8.4 µM
- kind of inverse agonism at US28 (inhibition of signaling complete) (US28 [6]; COS-7 cells): full inverse agonist
- IC50 (US28 [6]; [9]): 3.5 µM
- % 10^-5 remaining activity on US28 in inositol phosphate assay (US28 [6]): 10%
- IC50 (US28 [6]; pIC50 of US28 mediated InsP production, COS-7 cells, WT-US28): 3.47 µM
- modulation of ORF74-mediated PLC activation (KSHV-encoded ORF74): does not modulate
- IC50 (Δ(2-22)-US28): 4.47 µM
- inhibition of constitutive signaling (Δ(2-22)-US28; Δ(2-22)-US28, COS-7 cells): totally inhibits
- basal or histamine-induced production of InsP [7]: does not alter
- Bmax value of [125I]-RANTES (US28 [8]): 380 ± 36 fmol/mg protein
- cellular toxicity (transfected cells): did not show cellular toxicity
- toxicity by MTT test (HEK-293T cells): toxic effects
- affinity compared to WT-US28 (E^277Q-US28): markedly reduced
- affinity compared to WT-US28 (E^277A-US28): markedly reduced

Structure (SMILES): N#CC(CCCN1CCC(C(N)=O)CC1)(c1ccccc1)c1ccccc1 [VUF5720]
- % 10^-5 remaining activity on US28 in inositol phosphate assay (US28 [6]): 87%

Structure (SMILES): OC1(c2ccc(Cl)cc2)CCN(CCCOc2ccccc2)CC1 [VUF5714]
- % 10^-5 remaining activity on US28 in inositol phosphate assay (US28 [6]): 77%

Structure (SMILES): N#CC1(CCCN2CCC(O)(c3ccc(Cl)cc3)CC2)c2ccccc2CCc2ccccc21 [VUF5713]
- IC50 (US28 [5]): 9.6 µM
- IC50 (US28 [6]; [9]): 5.3 µM
- % 10^-5 remaining activity on US28 in inositol phosphate assay (US28 [6]): -5%
- inverse agonistic effect at US28 relative to the compound of Formula X (statement in words) (US28 [6]): comparable potencies

Structure (SMILES): N#CC(CCCN1CCC(O)(c2ccccc2)CC1)(c1ccccc1)c1ccccc1 [VUF5660]
- IC50 (US28 [5]): 35 µM
- IC50 (US28 [6]; [9]): 29 µM
- % 10^-5 remaining activity on US28 in inositol phosphate assay (US28 [6]): 60%
- loss in inverse agonistic potency (US28 [6]): five- to ten-fold

Structure (SMILES): NCC(CCCN1CCC(O)(c2ccc(Cl)cc2)CC1)(c1ccccc1)c1ccccc1 [VUF5728]
- % 10^-5 remaining activity on US28 in inositol phosphate assay (US28 [6]): 10%

Structure (SMILES): O=C(NCC(CCCN1CCC(O)(c2ccc(Cl)cc2)CC1)(c1ccccc1)c1ccccc1)NC1CCNCC1 [VUF5717]
- % 10^-5 remaining activity on US28 in inositol phosphate assay (US28 [6]): 100%

Structure (SMILES): N#CC(CCCN1CCN(c2ccc(Cl)cc2)CC1)(c1ccccc1)c1ccccc1 [VUF5658]
- % 10^-5 remaining activity on US28 in inositol phosphate assay (US28 [6]): 88%
- inverse agonistic effect at US28 relative to the compound of Formula X (statement in words) (US28 [6]): inactive

Structure (SMILES): O=C(CCCN1CCC(O)(c2ccc(Cl)cc2)CC1)c1ccccc1 [VUF5666]
- % 10^-5 remaining activity on US28 in inositol phosphate assay (US28 [6]): 70%

Structure (SMILES): N#CC1(CCCN2CCC(O)(c3ccc(Cl)cc3)CC2)c2ccccc2CSc2ccccc21 (stereo not shown) [VUF5727]
- % 10^-5 remaining activity on US28 in inositol phosphate assay (US28 [6]): 14%

Structure (SMILES): N#CC(CCCN1CCC(c2ccc(Cl)cc2)CC1)(c1ccccc1)c1ccccc1 [VUF5662]
- IC50 (US28 [5]; [125I]-RANTES binding at US28, COS-7 cells, N.A. = non active, read-out: IC50 binding): 10.5 µM
- IC50 (US28 [6]; [9]): 14 µM
- % 10^-5 remaining activity on US28 in inositol phosphate assay (US28 [6]): 60%
- loss in inverse agonistic potency (US28 [6]): five- to ten-fold

Structure (SMILES): CC(C)(C)c1ccc(C(O)CCCN2CCC(C(O)(c3ccccc3)c3ccccc3)CC2)cc1 (stereo not drawn) [Terfenadine, α-[4-(1,1-dimethylethyl)phenyl]-4-(hydroxydiphenylmethyl)-1-piperidinebutanol, reference compound]
- % 10^-5 remaining activity on US28 in inositol phosphate assay (US28 [6]): 15%

Structure (SMILES): OC1(c2ccc(Cl)cc2)CCN(CCCC(c2ccccc2)c2ccccc2)CC1 [VUF5667]
- IC50 (US28 [5]): 5.9 µM
- IC50 (US28 [6]; [9]): 4.2 µM
- % 10^-5 remaining activity on US28 in inositol phosphate assay (US28 [6]): 23%
- inverse agonistic effect at US28 relative to the compound of Formula X (statement in words) (US28 [6]): does not affect the activity

Structure (SMILES): N#CC(O)(CCCN1CCC(O)(c2ccc(Cl)cc2)CC1)c1ccccc1 (stereo not shown) [VUF5715]
- inverse agonistic effect at US28 relative to the compound of Formula X (statement in words) (US28 [6]): loss of effect

Structure (SMILES): N#CC(CCCN1CC=C(c2ccc(Cl)cc2)CC1)(c1ccccc1)c1ccccc1 [VUF5664]
- % 10^-5 remaining activity on US28 in inositol phosphate assay (US28 [6]): 83%

Structure (SMILES): N#CC(CCCN1CCC(C(=O)O)CC1)(c1ccccc1)c1ccccc1 [VUF5718]
- % 10^-5 remaining activity on US28 in inositol phosphate assay (US28 [6]): 85%
